Measurements reported in patent publication US12109197B2, “Combinations of β-lactam compounds and probenecid and uses thereof” (Iterum Therapeutics International Limited, priority 2018, dated 2024).
Read-outs that look alike come from different tables or passages of the source.

Key:
[1] = Description: Subjects were to be dosed twice a day (every 12 hours) for 6 days and on Day 7 they were to be dosed once. All treatment groups could be run in parallel or sequentially. Subjects were allocated based on the randomization list. Randomization numbers were assigned sequentially as subjects entered into groups on the basis of their order of entry into the study. Subjects who withdrew for reasons unrelated to safety may have been replaced. Blood samples were obtained at prespecified intervals in order to characterize pharmacokinetics.
[2] = Dacey and Sande 1974; cited from earlier work
[3] = Multiple-dose study of sulopenem delivered intravenously: plasma pharmacokinetics; type: in vivo, human; settings: for AUC(0-inf) / AUC(0-t) / Cmax / half-life / Tmax / CL renal: human, plasma, iv; for Tmax: median [range]; for Rac: accumulation ratio
Description: The pharmacokinetics of sulopenem delivered intravenously were studied in a randomized, investigator-blind, subject-blind, sponsor-open, placebo-controlled, multiple-dose study of sulopenem. There were 5 cohorts dosed. Each subject was dosed for up to 14 days. Each cohort consisted of 10 subjects.

[4] = system: Porphyromonas gingivalis; settings: Ednie and Appelbaum 2009; cited from earlier work
[5] = 800 mg, intravenous 800 mg (3 h BID), Day 1
[6] = 800 mg, intravenous 800 mg (3 h BID), Day 14
[7] = 1200 mg, intravenous 1200 mg (1 h BID), Day 1
[8] = 1200 mg, intravenous 1200 mg (1 h BID), Day 14
[9] = 1200 mg, intravenous 1200 mg ([…] BID), Day 1
[10] = 1200 mg, intravenous 1200 mg ([…] BID), Day 14
[11] = 1600 mg, intravenous 1600 mg (1.5 h BID), Day 1
[12] = 1600 mg, intravenous 1600 mg (1.5 h BID), Day 14
[13] = 2000 mg, intravenous 2000 mg (1.5 h BID), Day 1

CCOC(C)(C)C(=O)OCOC(=O)C1=C(S[C@H]2CC[S@@+]([O-])C2)S[C@@H]2[C@@H]([C@@H](C)O)C(=O)N12 [Compound III-1b]
AUC of sulopenem on Day 7 compared with Day 1 ([1]; administered alone through the oral route): lower than that on Day 1
AUC of sulopenem on Day 7 compared with Day 1 ([1]; co-administered with probenecid): increased on Day 7 beyond that seen on Day 1

CCCN(CCC)S(=O)(=O)c1ccc(C(=O)O)cc1 [probenecid]
effect on concentrations of β-lactam compounds in the cerebrospinal fluid [2]: increase the concentrations of β-lactam compounds in the cerebrospinal fluid

C[C@@H](O)[C@H]1C(=O)N2C(C(=O)O)=C(S[C@H]3CC[S@@+]([O-])C3)S[C@H]12 [sulopenem]
AUC(0-inf) [3, 5]: 22400 ng·h/mL
AUC(0-t) [3, 5]: 22300 ng·h/mL
Cmax [3, 5]: 7270 ng/mL
half-life [3, 5]: 49.5 min
Tmax [3, 5]: 2 h
AUC(0-inf) [3, 6]: 26500 ng·h/mL
AUC(0-t) [3, 6]: 26400 ng·h/mL
CL renal [3, 6]: 257 mL/min
Cmax [3, 6]: 8970 ng/mL
half-life [3, 6]: 53.3 min
Tmax [3, 6]: 2 h
AUC(0-inf) [3, 7]: 42300 ng·h/mL
AUC(0-t) [3, 7]: 42200 ng·h/mL
Cmax [3, 7]: 32500 ng/mL
half-life [3, 7]: 62.4 min
Tmax [3, 7]: 1 h
AUC(0-inf) [3, 8]: 41400 ng·h/mL
AUC(0-t) [3, 8]: 41300 ng·h/mL
CL renal [3, 8]: 245 mL/min
Cmax [3, 8]: 30700 ng/mL
half-life [3, 8]: 63 min
Tmax [3, 8]: 1 h
AUC(0-inf) [3, 9]: 41900 ng·h/mL
AUC(0-t) [3, 9]: 41800 ng·h/mL
Cmax [3, 9]: 16600 ng/mL
half-life [3, 9]: 67.2 min
Tmax [3, 9]: 2.25 h
AUC(0-inf) [3, 10]: 34600 ng·h/mL
AUC(0-t) [3, 10]: 34500 ng·h/mL
CL renal [3, 10]: 313 mL/min
Cmax [3, 10]: 13500 ng/mL
half-life [3, 10]: 60.6 min
Tmax [3, 10]: 2 h
AUC(0-inf) [3, 11]: 67300 ng·h/mL
AUC(0-t) [3, 11]: 67100 ng·h/mL
Cmax [3, 11]: 40100 ng/mL
half-life [3, 11]: 62.4 min
Tmax [3, 11]: 1.5 h
AUC(0-inf) [3, 12]: 54900 ng·h/mL
AUC(0-t) [3, 12]: 54700 ng·h/mL
CL renal [3, 12]: 327 mL/min
Cmax [3, 12]: 31800 ng/mL
half-life [3, 12]: 72 min
Tmax [3, 12]: 1.25 h
AUC(0-inf) [3, 13]: 90300 ng·h/mL
AUC(0-t) [3, 13]: 90100 ng·h/mL
Cmax [3, 13]: 51500 ng/mL
half-life [3, 13]: 67.2 min
Tmax [3, 13]: 1.5 h
Rac ([3]; intravenous 800 mg (3 h BID), Day 14): 1.15 (29)
Rac ([3]; intravenous 1200 mg (1 h BID), Day 14): 0.928 (17)
Rac ([3]; intravenous 1200 mg ([…] BID), Day 14): 0.841 (9)
Rac ([3]; intravenous 1600 mg (1.5 h BID), Day 14): 0.791 (9)
activity against Porphyromonas gingivalis [4]: active
